Assays:
Pim3 kinase = Pim3 kinase (Homo sapiens (Human), UniProt Q86V86); settings: read-out: Pim3 IC50
Pim1 kinase = Pim1 kinase (Homo sapiens (Human), UniProt P11309); settings: read-out: Pim1 IC50
Chain of Pim1 kinase (P11309 whole entry): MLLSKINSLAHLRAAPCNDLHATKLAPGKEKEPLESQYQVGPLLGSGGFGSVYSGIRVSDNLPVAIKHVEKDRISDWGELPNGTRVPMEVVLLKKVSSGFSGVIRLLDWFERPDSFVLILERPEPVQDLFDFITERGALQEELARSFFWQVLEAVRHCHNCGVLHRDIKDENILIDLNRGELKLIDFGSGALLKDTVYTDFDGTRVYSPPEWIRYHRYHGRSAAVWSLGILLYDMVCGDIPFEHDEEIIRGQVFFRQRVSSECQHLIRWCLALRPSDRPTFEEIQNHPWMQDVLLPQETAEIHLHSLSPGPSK

Q: What does the source list for `CC1(C)C[C@H](N)C[C@H](c2ccncc2NC(=O)c2ccc(F)c(-c3c(F)cccc3F)n2)C1` [Example 49, N-(4-((1R,5R)-5-amino-3,3-dimethylcyclohexyl)pyridin-3-yl)-6-(2,6-difluorophenyl)-5-fluoropicolinamide]?
A: IC50 (Pim3 kinase): 2 nM; IC50 (Pim1 kinase): 1 nM

Q: Which IC50 (Pim3 kinase) does the source give for `C[C@@H]1C[C@H](N)C[C@H](c2ccncc2NC(=O)c2nc(-c3c(F)cccc3F)c(F)cc2N)C1` [Example 51, 3-amino-N-(4-((1R,3S,5S)-3-amino-5-methylcyclohexyl)pyridin-3-yl)-6-(2,6-difluorophenyl)-5-fluoropicolinamide] here?
A: 1 nM

Q: What about the IC50 (Pim1 kinase) of the same compound?
A: 1 nM

Q: For `N[C@H]1CCC[C@@H](c2ccncc2NC(=O)c2ccc(F)c([C@H]3CC[C@@H](O)CC3)n2)C1` [Example 53, N-(4-((1R,3S)-3-aminocyclohexyl)pyridin-3-yl)-5-fluoro-6-((1s,4s)-4-hydroxycyclohexyl)picolinamide], which IC50 (Pim3 kinase) is on record?
A: 65 nM

Q: And the IC50 (Pim1 kinase)?
A: 10 nM

Q: How did the IC50 (Pim3 kinase) turn out when `N[C@H]1CCC[C@@H](c2ccncc2NC(=O)c2ccc(F)c([C@H]3CC[C@H](O)CC3)n2)C1` [Example 56, N-(4-((1R,3S)-3-aminocyclohexyl)pyridin-3-yl)-5-fluoro-6-((1r,4r)-4-hydroxycyclohexyl)picolinamide] was run?
A: 102 nM

Q: And the IC50 (Pim1 kinase)?
A: 11 nM

Q: Which IC50 (Pim3 kinase) does the source give for `C[C@@H]1C[C@H](N)C[C@H](c2ccncc2NC(=O)c2ccc(F)c(-c3cc(F)ccc3F)n2)C1` [Example 61, N-(4-((1R,3S,5S)-3-amino-5-methylcyclohexyl)pyridin-3-yl)-6-(2,5-difluorophenyl)-5-fluoropicolinamide] here?
A: 4 nM

Q: What about the IC50 (Pim1 kinase) of the same compound?
A: 1 nM

Q: Which IC50 (Pim3 kinase) does the source give for `C[C@@H]1C[C@H](N)C[C@H](c2ccncc2NC(=O)c2cccc(-c3ccccc3F)n2)C1` [Example 62, N-(4-((1R,3S,5S)-3-amino-5-methylcyclohexyl)pyridin-3-yl)-6-(2-fluorophenyl)picolinamide] here?
A: 3 nM

Q: What about the IC50 (Pim1 kinase) of the same compound?
A: 1 nM

Q: For `C[C@@H]1C[C@H](N)C[C@H](c2ccncc2NC(=O)c2cccc(-c3c(F)cccc3F)n2)C1` [Example 63, N-(4-((1R,3S,5S)-3-amino-5-methylcyclohexyl)pyridin-3-yl)-6-(2,6-difluorophenyl)picolinamide], which IC50 (Pim3 kinase) is on record?
A: 2 nM

Q: What about the IC50 (Pim1 kinase) of the same compound?
A: 1 nM

Q: Which IC50 (Pim3 kinase) does the source give for `CCCOc1ccc(F)c(-c2nc(C(=O)Nc3cnccc3[C@@H]3CC[C@H](O)[C@H](N)C3)ccc2F)c1` [Example 64, N-(4-((1R,3R,4S)-3-amino-4-hydroxycyclohexyl)pyridin-3-yl)-5-fluoro-6-(2-fluoro-5-propoxyphenyl)picolinamide] here?
A: 5 nM

Q: What about the IC50 (Pim1 kinase) of the same compound?
A: 2 nM

Q: With `CCCOc1ccc(F)c(-c2nc(C(=O)Nc3cnccc3[C@@H]3CC[C@H](O)[C@H](N)C3)c(N)cc2F)c1` [Example 67, 3-amino-N-(4-((1R,3R,4S)-3-amino-4-hydroxycyclohexyl)pyridin-3-yl)-5-fluoro-6-(2-fluoro-5-propoxyphenyl)picolinamide] as the compound, how does the IC50 (Pim3 kinase) read?
A: 3 nM

Q: And the IC50 (Pim1 kinase)?
A: 1 nM

Q: How did the IC50 (Pim3 kinase) turn out when `Cc1ccc(F)c(-c2cccc(C(=O)Nc3cnccc3[C@H]3C[C@@H](N)[C@@H](O)[C@@H](C)C3)n2)c1` [Example 74, N-(4-((1R,3R,4S,5S)-3-amino-4-hydroxy-5-methylcyclohexyl)pyridin-3-yl)-6-(2-fluoro-5-methylphenyl)picolinamide] was run?
A: 4 nM

Q: What about the IC50 (Pim1 kinase) of the same compound?
A: 1 nM

Q: How did the IC50 (Pim3 kinase) turn out when `C[C@H]1C[C@@H](c2ccncc2NC(=O)c2cccc(-c3c(F)cccc3F)n2)C[C@@H](N)[C@H]1O` [Example 76, N-(4-((1R,3R,4S,5S)-3-amino-4-hydroxy-5-methylcyclohexyl)pyridin-3-yl)-6-(2,6-difluorophenyl)picolinamide] was run?
A: 2 nM

Q: And the IC50 (Pim1 kinase)?
A: 1 nM

Q: What does the source list for `N[C@H]1CCC[C@@H](c2ccncc2NC(=O)c2ccc(F)c(-c3cccc(F)c3F)n2)C1` [Example 79, N-(4-((1R,3S)-3-aminocyclohexyl)pyridin-3-yl)-6-(2,3-difluorophenyl)-5-fluoropicolinamide]?
A: IC50 (Pim3 kinase): 3 nM; IC50 (Pim1 kinase): 2 nM

Q: `N[C@H]1CCC[C@@H](c2ccncc2NC(=O)c2nc(-c3c(F)cccc3F)ccc2F)C1` [Example 80, N-(4-((1R,3S)-3-aminocyclohexyl)pyridin-3-yl)-6-(2,6-difluorophenyl)-3-fluoropicolinamide] was tested. Which IC50 (Pim3 kinase) did it give?
A: 7 nM

Q: And the IC50 (Pim1 kinase)?
A: 6 nM

Q: `N[C@H]1CCC[C@@H](c2ccncc2NC(=O)c2ccc(F)c(-c3ccc(F)cc3F)n2)C1` [Example 82, N-(4-((1R,3S)-3-aminocyclohexyl)pyridin-3-yl)-6-(2,4-difluorophenyl)-5-fluoropicolinamide] was tested. Which IC50 (Pim3 kinase) did it give?
A: 9 nM

Q: What about the IC50 (Pim1 kinase) of the same compound?
A: 3 nM

Q: For `N[C@@H]1C[C@H](c2ccncc2NC(=O)c2cccc(-c3ccccc3F)n2)CC[C@@H]1O` [Example 83, N-(4-((1R,3R,4S)-3-amino-4-hydroxycyclohexyl)pyridin-3-yl)-6-(2-fluorophenyl)picolinamide], which IC50 (Pim3 kinase) is on record?
A: 5 nM

Q: What about the IC50 (Pim1 kinase) of the same compound?
A: 4 nM

Q: `Nc1ccc(-c2c(F)cccc2F)nc1C(=O)Nc1cnccc1C1=CC(N)C(O)CC1` (stereo not drawn) [Example 92, 3-amino-N-(4-(trans)-3-amino-4-hydroxycyclohex-1-enyl)pyridin-3-yl)-6-(2,6-difluorophenyl)picolinamide] was tested. Which IC50 (Pim3 kinase) did it give?
A: 5 nM

Q: What about the IC50 (Pim1 kinase) of the same compound?
A: 2 nM

Q: `Nc1ccc(-c2c(F)cccc2F)nc1C(=O)Nc1cnccc1C1=C[C@@H](N)[C@@H](O)CC1` [Example 93] was tested. Which IC50 (Pim3 kinase) did it give?
A: 5 nM

Q: What about the IC50 (Pim1 kinase) of the same compound?
A: 1 nM

Q: Which IC50 (Pim3 kinase) does the source give for `C[C@@H]1CN(c2ccncc2NC(=O)c2nc(-c3c(F)cccc3F)ccc2N)C[C@@H](N)[C@H]1O` [Example 103, 3-amino-N-(4-((3R,4S,5R)-3-amino-4-hydroxy-5-methylpiperidin-1-yl)pyridin-3-yl)-6-(2,6-difluorophenyl)picolinamide] here?
A: 4 nM

Q: And the IC50 (Pim1 kinase)?
A: 2 nM

Q: For `Cc1ccc(F)c(-c2cccc(C(=O)Nc3cnccc3[C@H]3C[C@@H](N)C[C@@H](C(F)(F)F)C3)n2)c1` [Example 108, N-(4-((1R,3R,5S)-3-amino-5-(trifluoromethyl)cyclohexyl)pyridin-3-yl)-6-(2-fluoro-5-methylphenyl)picolinamide], which IC50 (Pim3 kinase) is on record?
A: 3 nM

Q: What about the IC50 (Pim1 kinase) of the same compound?
A: 1 nM

Q: With `N[C@@H]1C[C@H](c2ccncc2NC(=O)c2ccc(F)c(C3CCCCC3)n2)C[C@H](C(F)(F)F)C1` [Example 111, N-(4-((1R,3R,5S)-3-amino-5-(trifluoromethyl)cyclohexyl)pyridin-3-yl)-6-cyclohexyl-5-fluoropicolinamide] as the compound, how does the IC50 (Pim3 kinase) read?
A: 11 nM

Q: And the IC50 (Pim1 kinase)?
A: 2 nM

Q: What does the source list for `C[C@H]1CN(c2ccncc2NC(=O)c2ccc(F)c(-c3ccccc3F)n2)C[C@@H](O)[C@@H]1O` [Example 114, N-(4-((3R,4R,5S)-3,4-dihydroxy-5-methylpiperidin-1-yl)pyridin-3-yl)-5-fluoro-6-(2-fluorophenyl)picolinamide]?
A: IC50 (Pim3 kinase): 1 nM; IC50 (Pim1 kinase): 1 nM

Q: What does the source list for `C[C@H]1CN(c2ccncc2NC(=O)c2cccc(-c3c(F)cccc3F)n2)C[C@@H](O)[C@@H]1O` [Example 115, 6-(2,6-difluorophenyl)-N-(4-((3R,4R,5S)-3,4-dihydroxy-5-methylpiperidin-1-yl)pyridin-3-yl)picolinamide]?
A: IC50 (Pim3 kinase): 1 nM; IC50 (Pim1 kinase): 1 nM

Q: For `C[C@H]1CN(c2ccncc2NC(=O)c2ccc(F)c(-c3cccnc3)n2)C[C@@H](N)[C@@H]1O` [Example 118, N-(4-((3R,4R,5S)-3-amino-4-hydroxy-5-methylpiperidin-1-yl)pyridin-3-yl)-3-fluoro-2,3′-bipyridine-6-carboxamide], which IC50 (Pim3 kinase) is on record?
A: 9 nM

Q: And the IC50 (Pim1 kinase)?
A: 4 nM

Q: What does the source list for `C[C@H]1CN(c2ccncc2NC(=O)c2ccc(F)c(-c3ccncc3F)n2)C[C@@H](N)[C@@H]1O` [Example 119, N-(4-((3R,4R,5S)-3-amino-4-hydroxy-5-methylpiperidin-1-yl)pyridin-3-yl)-3,3′-difluoro-2,4′-bipyridine-6-carboxamide]?
A: IC50 (Pim3 kinase): 2 nM; IC50 (Pim1 kinase): 1 nM

Q: Which results are given for `C[C@H]1CN(c2ccncc2NC(=O)c2ccc(F)c(-c3ccncc3)n2)C[C@@H](N)[C@@H]1O` [Example 120, N-(4-((3R,4R,5S)-3-amino-4-hydroxy-5-methylpiperidin-1-yl)pyridin-3-yl)-3-fluoro-2,4′-bipyridine-6-carboxamide]?
A: IC50 (Pim3 kinase): 7 nM; IC50 (Pim1 kinase): 3 nM

Q: `COc1cc(F)c(-c2nc(C(=O)Nc3cnccc3[C@H]3C[C@@H](N)CC(C)(C)C3)ccc2F)c(F)c1` [Example 123, N-(4-((1R,5R)-5-amino-3,3-dimethylcyclohexyl)pyridin-3-yl)-6-(2,6-difluoro-4-methoxyphenyl)-5-fluoropicolinamide] was tested. Which IC50 (Pim3 kinase) did it give?
A: 2 nM

Q: What about the IC50 (Pim1 kinase) of the same compound?
A: 1 nM

Q: What does the source list for `N[C@H]1CCC[C@@H](c2ccncc2NC(=O)c2ccc(F)c(-c3c(F)ccc(O)c3F)n2)C1` [Example 124, N-(4-((1R,3S)-3-aminocyclohexyl)pyridin-3-yl)-6-(2,6-difluoro-3-hydroxyphenyl)-5-fluoropicolinamide]?
A: IC50 (Pim3 kinase): 1 nM; IC50 (Pim1 kinase): 1 nM

Q: Which IC50 (Pim3 kinase) does the source give for `C[C@H]1C[C@@H](c2ccncc2NC(=O)c2ccc(F)c(-c3cccc(C(F)(F)F)c3F)n2)C[C@@H](N)[C@@H]1O` [Example 127, N-(4-((1R,3R,4R,5S)-3-amino-4-hydroxy-5-methylcyclohexyl)pyridin-3-yl)-5-fluoro-6-(2-fluoro-3-(trifluoromethyl)phenyl)picolinamide] here?
A: 27 nM

Q: And the IC50 (Pim1 kinase)?
A: 11 nM

Q: Which results are given for `C[C@@H]1C[C@H](N)C[C@H](c2ccncc2NC(=O)c2ccc(F)c(-c3c(F)ccc(F)c3F)n2)C1` [Example 129, N-(4-((1R,3S,5S)-3-amino-5-methylcyclohexyl)pyridin-3-yl)-5-fluoro-6-(2,3,6-trifluorophenyl)picolinamide]?
A: IC50 (Pim3 kinase): 2 nM; IC50 (Pim1 kinase): 1 nM

Q: Which IC50 (Pim3 kinase) does the source give for `Nc1cc(F)c(-c2ccncc2F)nc1C(=O)Nc1cnccc1[C@@H]1CCC[C@H](N)C1` [Example 136, 5-amino-N-(4-((1R,3S)-3-aminocyclohexyl)pyridin-3-yl)-3,3′-difluoro-2,4′-bipyridine-6-carboxamide] here?
A: 9 nM

Q: And the IC50 (Pim1 kinase)?
A: 2 nM

Q: Which results are given for `CC1CC(c2ccncc2NC(=O)c2ccc(F)c(-c3c(F)cccc3F)n2)=CC(O)C1` (centres unmarked) [Example 137, 6-(2,6-difluorophenyl)-5-fluoro-N-(4-(3-hydroxy-5-methylcyclohex-1-enyl)pyridin-3-yl)picolinamide]?
A: IC50 (Pim3 kinase): 7 nM; IC50 (Pim1 kinase): 1 nM
